Reference: patent US20260356814A1, “INDOLINE DERIVATIVES AS SEROTONERGIC AGENTS USEFUL FOR THE TREATMENT OF DISORDERS RELATED THERETO” (MINDSET PHARMA INC., priority 2022, published 2026)

Columns and labels:
[1] = target: T1, human 5-HT1A receptor (Homo sapiens, UniProt P08908); assay: Human 5-HT1A: Functional FLIPR assay (agonist mode); assay type: cell-based; details: for RFU@10 μM: @10 μM (head), footnote: curve fitting with activation (%) @ 10 mM with RFU, RFU=Fmax−Fmin; for EC50: FLIPR calcium, agonist mode, HTR1A&Gα15-CHO cells, ND: not detected, read-out: h5-HT1A, EC50
T1 construct: expressed in transfected cells; host or cells: CHO (HTR1A&Ga15-CHO)
T1 sequence (P08908 1-422): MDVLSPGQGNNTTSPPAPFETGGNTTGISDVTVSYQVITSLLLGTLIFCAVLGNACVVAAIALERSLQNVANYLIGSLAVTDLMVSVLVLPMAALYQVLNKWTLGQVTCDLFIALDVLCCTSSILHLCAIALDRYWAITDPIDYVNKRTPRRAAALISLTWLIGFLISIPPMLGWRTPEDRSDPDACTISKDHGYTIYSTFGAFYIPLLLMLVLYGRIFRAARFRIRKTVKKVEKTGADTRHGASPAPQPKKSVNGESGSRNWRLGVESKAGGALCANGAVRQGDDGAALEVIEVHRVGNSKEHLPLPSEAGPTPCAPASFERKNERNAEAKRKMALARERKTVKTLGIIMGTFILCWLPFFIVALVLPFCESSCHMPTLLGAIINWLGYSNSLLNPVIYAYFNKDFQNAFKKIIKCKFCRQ
Procedure: The potential excitatory effects of compounds targeting on 5-hydroxytryptamine receptor 1A (5-HT1A) under agonist mode was assessed.
HTR1A&Ga15-CHO cells were cultured in DMEM/F12 medium containing 10% dialyzed FBS, 1x penicillin-streptomycin and 600 μg/mL Hygromycin B. The cells were passaged about three times a week, maintained between ~30% to ~90% confluence.
• 1. The cell culture medium (DMEM/F12 medium containing 10% dialyzed FBS, 1x penicillin-streptomycin and 600 μg/mL Hygromycin B), TrypLE™ Express and DPBS was warmed to R.T. in advance. • 2. The cell culture medium was removed from flask. Washed cells with DPBS. • 3. 1 mL TrypLE™ Express was added to the flask, mixed well by gentle shaking and cells were incubated at 37° C. for a few minutes. • 4. The cells were checked for morphological change under microscope, the digestion was stopped by adding 2 mL cell culture medium to the flask when most of cells turned to round. • 5. The cell suspension was transferred into a 15 mL centrifuge tube, and then centrifuged at 1,200 rpm for 5 minutes. • 6. The supernatant was removed. The cell pellet were resuspended with 2 mL cell culture medium. • 7. The cell density were counted using cell counter. Only cells with >85% viability were used for the assay. • 8. Cells were diluted to 4×10^5/mL with cell culture medium. • 9. 30 μL/well cell suspensions were added into a 384-well cell plate (The cell density was 12,000 cells/well). • 10. The cell plate was incubated overnight at 37° C., 5% (v/v) CO2.
• 1. On the day of experiments, culture medium was removed from the cell plate. • 2. 10 μL of assay buffer (20 mM HEPES, in 1×HBSS, pH 7.4) was added to each well of the cell plate. • 3. 2× dye solution was prepared following the manufacture's instruction of the FLIPR® Calcium 6 assay kit: • i. The dye was diluted with assay buffer. • ii. probenecid was added to the final concentration of 5 mM. • iii. Vortexed vigorously for 1-2 minutes, adjust pH to 7.4. • 4. 10 μL of 2×dye solution was added to each well of the cell plate. • 5. The cell plate was placed on plate shaker, followed by shaking at 600 rpm for 2 minutes. • 6. The plate was incubated at 37° C. for 2 hours followed by an additional 15-minute incubation at 25° C. 3.4 Prepare 3×compounds. • 1. Serotonin was prepared to the concentration of 10 mM with DMSO, 3-folds serial dilutions were performed with DMSO. • 2. Prepare the test compound to the concentration of 10 mM with DMSO, preform 3-folds serial dilutions with DMSO. • 3. The compounds were added to a 384-well compound source plate. • 4. 90 nL/well of serial diluted compounds were transferred from source plate to a 384-well compound plate by using an Echo. • 5. 30 μL/well of assay buffer was added to the compound plate. • 6. The plate was mixed on-plate shaker for 2 minutes. 3.5 FLIPR assay • 1. After the cells incubate with dye solution, the cell plate, compound plate containing 3×compounds and FLIPR tips were placed into FLIPR. • 2. 10 μL of 3×compounds were transferred from the compound plate to the cell plate by FLIPR. • 3. The plate was read for 160 sec with 1 sec interval to obtain the data of agonist mode.
• 1. The normalized fluorescence reading (RFU) was calculated as shown below, wherein Fmax and Fmin stand for maximum and minimum of calcium signal during defined time window:
RFU=Fmax−Fmin • 2. EC50 was calculated by fitting RFU against log of compound concentrations with Hill equation using XLfit.

[2] = Plasma stability, human; assay type: in vitro ADME; details: 37° C.; for remaining at 0.5 h: 30 min, read-out: Remaining Percentage (%), 30 min; for remaining at 1 h: 60 min, read-out: Remaining Percentage (%), 60 min; for half-life: >255.85 if remaining at 60 min greater than 85%
Procedure: (§1) • a. […] The final concentration of organic solvents was 0.5%. The assay was performed in duplicated. • b.
(§2) All calculations were carried out using Microsoft Excel.

[3] = Plasma stability, rat; assay type: in vitro ADME; details: 37° C.; for remaining at 0.5 h: 30 min, read-out: Remaining Percentage (%), 30 min; for remaining at 1 h: 60 min, read-out: Remaining Percentage (%), 60 min; for half-life: >255.85 if remaining at 60 min greater than 85%
Procedure: as §1, §2

[4] = Plasma stability, mouse; assay type: in vitro ADME; details: 37° C.; for remaining at 0.5 h: 30 min, read-out: Remaining Percentage (%), 30 min; for remaining at 1 h: 60 min, read-out: Remaining Percentage (%), 60 min; for half-life: >255.85 if remaining at 60 min greater than 85%
Procedure: as §1, §2

SMILES	RFU@10 μM [1] [RFU]	Remaining Percentage (%), 0 min [2] [%]	remaining at 0.5 h [2] [%]	remaining at 1 h [2] [%]	half-life [2] [h]	Remaining Percentage (%), 0 min [3] [%]	remaining at 0.5 h [3] [%]	remaining at 1 h [3] [%]	half-life [3] [h]	Remaining Percentage (%), 0 min [4] [%]	remaining at 0.5 h [4] [%]	remaining at 1 h [4] [%]	half-life [4] [h]	EC50 [1] [µM]
[2H]C([2H])([2H])N1CCC[C@@H]1C([2H])([2H])N1CCc2ccccc21 [(R)-I-1, (R)-1-((1-(Methyl-d3)pyrrolidin-2-yl)methyl-d2) indoline]	84	–	–	–	–	–	–	–	–	–	–	–	–	–
[2H]C([2H])([2H])Oc1ccc2c(c1)N(C([2H])([2H])[C@H]1CCCN1C([2H])([2H])[2H])CC2 [(R)-I-28, (R)-6-(Methoxy-d3)-1-((1-(methyl-d3)pyrrolidin-2-yl)methyl-d2) indoline]	1981	100.00	95.1	94.2	> 4.26	100.00	97.9	94.7	> 4.26	100.00	99.2	93.3	> 4.26	2.34
COc1cc2c(cc1OC)N(C[C@H]1CCCN1C)CC2 [(R)-I-34, (R)-5,6-dimethoxy-1-((1-methylpyrrolidin-2-yl)methyl) indoline]	155	–	–	–	–	–	–	–	–	–	–	–	–	–
COc1cccc2c1N(C[C@H]1CCCN1C)CC2 [(R)-I-46, (R)-7-Methoxy-1-((1-methylpyrrolidin-2-yl)methyl) indoline]	373	100.00	104	93	> 4.26	100.00	91.3	86.7	> 4.26	100.00	103	92.4	> 4.26	–
COc1cccc2c1CCN2C[C@H]1CCCN1C [(R)-I-47, (R)-4-Methoxy-1-((1-methylpyrrolidin-2-yl)methyl) indoline]	70	–	–	–	–	–	–	–	–	–	–	–	–	–
[2H]C([2H])([2H])N1CCC[C@@H]1C([2H])([2H])N1CCc2ccc(OC)cc21 [(R)-I-57, (R)-6-Methoxy-1-((1-(methyl-d3)pyrrolidin-2-yl)methyl-d2) indoline]	2081	100.00	108	113	> 4.26	100.00	92.5	89.7	> 4.26	100.00	105	100	> 4.26	1.26
COc1ccc2c(c1)N(C[C@H]1CCCN1C)CC2 [(R)-I-58, (R)-6-Methoxy-1-((1-methylpyrrolidin-2-yl)methyl) indoline]	2444	100.00	108	98.5	> 4.26	100.00	111	110	> 4.26	100.00	97.4	105	> 4.26	2.04
COc1ccc2c(c1)N(C[C@H]1CCCN1)CC2 [(R)-I-59, (R)-6-Methoxy-1-(pyrrolidin-2-ylmethyl) indoline]	521	–	–	–	–	–	–	–	–	–	–	–	–	–
[2H]C([2H])([2H])N(CCN1CCc2ccc(OC)cc21)C([2H])([2H])[2H] [Compound I-70, 2-(6-Methoxyindolin-1-yl)-N, N-bis(methyl-d3) ethan-1-amine]	161	–	–	–	–	–	–	–	–	–	–	–	–	–
[2H]C([2H])([2H])N(CCN1CCc2ccccc21)C([2H])([2H])[2H] [Compound I-71, 2-(Indolin-1-yl)-N,N-bis(methyl-d3) ethan-1-amine]	145	–	–	–	–	–	–	–	–	–	–	–	–	–
